Data: the supplement of paper PMC8149375

Legend:
Details in all cases: treatment: drug + dasatinib (fixed dose, not stated); 5 days
A498 [1] = experiment: AUC of dose-response viability curve, drug + dasatinib, normalised to DMSO (arbitrary (AUC of normalised viability)); higher = less growth inhibition
Protocol: (§1)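 Primary HTS combination arm: 8 RCC cell lines treated with 8 doses (up to 10 uM) of each library drug plus a fixed dose of dasatinib (dose not stated) for 5 days; viability read by CellTiter-Glo and normalised to DMSO. GI50 was fitted with XLfit, AUC is the area under the dose-response curve, and minimum viability is the lowest fraction of DMSO viability across doses.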

786-O [2] = experiment: as above
Protocol: as §1

CAKI-1 [3] = experiment: as above
Protocol: as §1

SN12C [4] = experiment: as above
Protocol: as §1

769-P [5] = experiment: as above
Protocol: as §1

UO-31 [6] = experiment: as above
Protocol: as §1

ACHN [7] = experiment: as above
Protocol: as §1

TK-10 [8] = experiment: as above
Protocol: as §1

A498 [9] = experiment: minimum viability across doses, drug + dasatinib, relative to DMSO (fraction); higher = less growth inhibition
Protocol: as §1

786-O [10] = experiment: as above
Protocol: as §1

CAKI-1 [11] = experiment: as above
Protocol: as §1

SN12C [12] = experiment: as above
Protocol: as §1

769-P [13] = experiment: as above
Protocol: as §1

UO-31 [14] = experiment: as above
Protocol: as §1

ACHN [15] = experiment: as above
Protocol: as §1

TK-10 [16] = experiment: as above
Protocol: as §1

A498 [17] = experiment: GI50 of drug in presence of dasatinib; higher = less potent
Protocol: as §1

786-O [18] = experiment: as above
Protocol: as §1

CAKI-1 [19] = experiment: as above
Protocol: as §1

SN12C [20] = experiment: as above
Protocol: as §1

769-P [21] = experiment: as above
Protocol: as §1

UO-31 [22] = experiment: as above
Protocol: as §1

ACHN [23] = experiment: as above
Protocol: as §1

TK-10 [24] = experiment: as above
Protocol: as §1

GI50 of drug (786-O [18]) [µM] | GI50 of drug (ACHN [23]) [µM] | Compound | AUC of dose-response viability curve (A498 [1]) | AUC of dose-response viability curve (786-O [2]) | AUC of dose-response viability curve (CAKI-1 [3]) | AUC of dose-response viability curve (SN12C [4]) | AUC of dose-response viability curve (769-P [5]) | AUC of dose-response viability curve (UO-31 [6]) | AUC of dose-response viability curve (ACHN [7]) | AUC of dose-response viability curve (TK-10 [8]) | minimum viability across doses (A498 [9]) | minimum viability across doses (786-O [10]) | minimum viability across doses (CAKI-1 [11]) | minimum viability across doses (SN12C [12]) | minimum viability across doses (769-P [13]) | minimum viability across doses (UO-31 [14]) | minimum viability across doses (ACHN [15]) | minimum viability across doses (TK-10 [16]) | GI50 of drug (A498 [17]) [µM] | GI50 of drug (CAKI-1 [19]) [µM] | GI50 of drug (SN12C [20]) [µM] | GI50 of drug (769-P [21]) [µM] | GI50 of drug (UO-31 [22]) [µM] | GI50 of drug (TK-10 [24]) [µM]
> 10 | 0.0157 | CS(=O)c1ccc(-c2nc(-c3ccc(F)cc3)c(-c3ccncc3)[nH]2)cc1 (stereo not drawn) + Cc1nc(Nc2ncc(C(=O)Nc3c(C)cccc3Cl)s2)cc(N2CCN(CCO)CC2)n1 [dasatinib] | 3.76 | 2.73 | 2.3 | 2.65 | 2.31 | 3.73 | 1.82 | 2.45 | 0.893 | 0.746 | 0.516 | 0.716 | 0.593 | 0.962 | 0.434 | 0.655 | > 10 | > 10 | > 10 | > 10 | > 10 | > 10
< 0.003 | > 10 | CC(C)(C)c1cc(/C=C(\C#N)C(N)=S)cc(C(C)(C)C)c1O [Tyrphostin AG 879 (AG 879)] + Cc1nc(Nc2ncc(C(=O)Nc3c(C)cccc3Cl)s2)cc(N2CCN(CCO)CC2)n1 [dasatinib] | 3.69 | 1.83 | 2.38 | 2.56 | 2.55 | 5.04 | 2.11 | 2.39 | 1 | 0.458 | 0.45 | 0.706 | 0.689 | 1.26 | 0.556 | 0.653 | > 10 | 7.59 | > 10 | > 10 | > 10 | > 10
1.06 | 0.729 | NCC(=O)Nc1ccc(-n2nc(C(F)(F)F)cc2-c2ccc3c(ccc4ccccc43)c2)cc1 + Cc1nc(Nc2ncc(C(=O)Nc3c(C)cccc3Cl)s2)cc(N2CCN(CCO)CC2)n1 [dasatinib] | 2.71 | 1.94 | 2.5 | 2.31 | 2.22 | 2.72 | 1.81 | 2.41 | 0.0159 | 0.00632 | 0.00695 | 0.00289 | 0.0325 | 0.0147 | 0.0394 | 0.177 | 2.1 | 3.65 | 4.51 | 2.65 | 2.58 | 2.75
0.496 | 0.112 | COc1cc2c(Oc3ccc(NC(=O)C4(C(=O)Nc5ccc(F)cc5)CC4)cc3F)ccnc2cc1OCCCN1CCOCC1 + Cc1nc(Nc2ncc(C(=O)Nc3c(C)cccc3Cl)s2)cc(N2CCN(CCO)CC2)n1 [dasatinib] | 2.47 | 1.65 | 1.48 | 1.56 | 1.78 | 1.95 | 1.36 | 1.94 | 0.0345 | 0.00858 | 0.00437 | 0.0105 | 0.00976 | 0.011 | 0.00242 | 0.00508 | 1.43 | 0.135 | 0.226 | 0.458 | 0.393 | 0.558

Further lines, the compound ahead of its results:

Compound | GI50 of drug (786-O [18]) [µM] | GI50 of drug (ACHN [23]) [µM] | AUC of dose-response viability curve (A498 [1]) | AUC of dose-response viability curve (786-O [2]) | AUC of dose-response viability curve (CAKI-1 [3]) | AUC of dose-response viability curve (SN12C [4]) | AUC of dose-response viability curve (769-P [5]) | AUC of dose-response viability curve (UO-31 [6]) | AUC of dose-response viability curve (ACHN [7]) | AUC of dose-response viability curve (TK-10 [8]) | minimum viability across doses (A498 [9]) | minimum viability across doses (786-O [10]) | minimum viability across doses (CAKI-1 [11]) | minimum viability across doses (SN12C [12]) | minimum viability across doses (769-P [13]) | minimum viability across doses (UO-31 [14]) | minimum viability across doses (ACHN [15]) | minimum viability across doses (TK-10 [16]) | GI50 of drug (A498 [17]) [µM] | GI50 of drug (CAKI-1 [19]) [µM] | GI50 of drug (SN12C [20]) [µM] | GI50 of drug (769-P [21]) [µM] | GI50 of drug (UO-31 [22]) [µM] | GI50 of drug (TK-10 [24]) [µM]
CC(C)n1nc(-c2ccc3oc(N)nc3c2)c2c(N)ncnc21 [INK 128] + Cc1nc(Nc2ncc(C(=O)Nc3c(C)cccc3Cl)s2)cc(N2CCN(CCO)CC2)n1 [dasatinib] | 0.00488 | 0.00303 | 1.19 | 0.59 | 0.693 | 0.931 | 0.95 | 0.741 | 0.554 | 0.838 | 0.0897 | 0.00403 | 0.0244 | 0.0733 | 0.0625 | 0.00639 | 0.0339 | 0.0156 | 0.0338 | 0.00918 | 0.0131 | 0.0147 | 0.0138 | 0.00996
CC[C@H](CO)Nc1nc(NCc2ccccc2)c2ncn(C(C)C)c2n1 [Roscovitine (Seliciclib, CYC202)] + Cc1nc(Nc2ncc(C(=O)Nc3c(C)cccc3Cl)s2)cc(N2CCN(CCO)CC2)n1 [dasatinib] | 4.9 | 3.63 | 3.29 | 2.32 | 2.54 | 2.52 | 2.52 | 3.04 | 2.15 | 2.74 | 0.847 | 0.259 | 0.514 | 0.669 | 0.595 | 0.272 | 0.266 | 0.675 | > 10 | > 10 | > 10 | > 10 | 9.07 | > 10
OCCn1cc(-c2ccc3c(c2)CC/C3=N\O)c(-c2ccncc2)n1 [GDC-0879] + Cc1nc(Nc2ncc(C(=O)Nc3c(C)cccc3Cl)s2)cc(N2CCN(CCO)CC2)n1 [dasatinib] | > 10 | 4.23 | 3.55 | 2.39 | 2.86 | 2.62 | 2.36 | 3.45 | 2.12 | 3.05 | 0.804 | 0.568 | 0.738 | 0.686 | 0.605 | 0.894 | 0.354 | 0.716 | > 10 | > 10 | > 10 | > 10 | > 10 | > 10
